Source: US6872745B2, “Antipicornaviral compounds and compositions, their pharmaceutical uses, and materials for their synthesis” (Agouron Pharmaceuticals, Inc., priority 2000, dated 2005)

Legend:
[1] = molecular target: T1, rhinovirus 3C protease, serotype 14 (Human rhinovirus 14, UniProt P03303); test: Inhibition of rhinovirus 3C protease (FRET assay, enzyme start); format: biochemical; details: HRV-14 3C protease, progress curves, read-out: Kobs/I
T1 construct: Recombinant rhinovirus 3C proteases; made in house
T1 sequence (P03303 1538-1719): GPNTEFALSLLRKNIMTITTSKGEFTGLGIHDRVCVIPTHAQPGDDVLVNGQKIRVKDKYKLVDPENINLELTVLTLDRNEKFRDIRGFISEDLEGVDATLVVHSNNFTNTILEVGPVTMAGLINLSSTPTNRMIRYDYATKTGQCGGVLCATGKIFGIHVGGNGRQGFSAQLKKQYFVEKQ
Protocol: Stock solutions (50 mM, in DMSO) of various compounds were prepared; dilutions were in the same solvent. Recombinant rhinovirus 3C proteases (see Birch et al., “Purification of recombinant human rhinovirus 14 3C protease expressed in Escherichia coli,” Protein Expr. Pur. (1995), vol. 6(5), 609-618) from serotypes 14, 16, and 2 were prepared by the following standard chromatographic procedures: (1) ion exchange using Q Sepharose Fast Flow from Pharmacia; (2) affinity chromatography using Affi-Gel Blue from Biorad; and (3) sizing using Sephadex G-100 from Pharmacia. Each assay sample contained 2% DMSO, 50 mM tris pH 7.6, 1 mM EDTA, a test compound at the indicated concentration, approximately 1 μM substrate, and 50-100 nM protease. The kobs/I values were obtained from reactions initiated by addition of enzyme rather than substrate. RVP activity was measured in the fluorescence resonance energy transfer assay. The substrate was (N-terminal) DABCYL-(Gly-Arg-Ala-Val-Phe-Gln-Gly-Pro-Val-Gly)-EDANS. In the uncleaved peptide, the EDANS fluorescence was quenched by the proximal DABCYL moiety. When the peptide was cleaved, the quenching was relieved, and activity was measured as an increase in fluorescence signal. The tabulated data in the column designated kobs/[I] were measured from progress curves in enzyme start experiments.

HRV-14 = test: Antirhinoviral H1-HeLa cell culture assay (XTT cell protection); format: cell-based, human rhinovirus; details: Rhinovirus B, HRV14, H1-HeLa, HRV-14, H1-HeLa cells
Protocol: (§1) In this cell protection assay, the ability of compounds to protect cells against HRV infection was measured by the XTT dye reduction method, which is described in Weislow et al., J. Natl. Cancer Inst. (1989), vol. 81, 577-586. H1-HeLa cells were infected with HRV-14 at a multiplicity of infection (m.o.i.) of 0.13 (virus particles/cell) or mock-infected with medium only. Infected or mock-infected cells were resuspended at 8×10^5 cells per ml, and incubated with appropriate concentrations of the compounds to be tested. Two days later, XTT/PMS was added to test plates and the amount of formazan produced was quantified spectrophotometrically at 450/650 nm. The EC50 value was calculated as the concentration of compound that increased the percentage of formazan production in compound-treated, virus-infected cells to 50% of that produced by compound-free, mock-infected cells. The 50% cytotoxic dose (CC50) was calculated as the concentration of compound that decreased the percentage of formazan produced in compound-treated, mock-infected cells to 50% of that produced by compound-free, mock-infected cells. The therapeutic index (TI) was calculated by dividing the CC50 value by the EC50 value.
(§2) All strains of human rhinovirus (HRV) for use in this assay were purchased from American Type Culture Collection (ATCC), except for HRV serotype-14 (produced from the infectious cDNA clone constructed by Dr. Robert Rueckert, Institute for Molecular Virology, University of Wisconsin, Madison, Wis.). HRV stocks were propagated and viral assays were performed in H1-HeLa cells (ATCC). Cells were grown in minimal essential medium with 10% fetal bovine serum, available from Life Technologies (Gaithersburg, Md.).

[2] = Cytotoxicity in mock-infected cells of the antirhinoviral assay (XTT); format: cell-based; details: human, H1-HeLa cells, table line HRV-14
Protocol: as §1, §2

Q: Which kinact/KI [1] does the source give for `CCOC(=O)/C=C/[C@H](CCC(N)=O)NC(=O)[C@H](Cc1ccccc1)NC(=O)c1ccc(-c2ccncc2)[nH]1` [Compound 15, 6-Carbamoyl-4S-{3-phenyl-2S-[(5-pyridin-4-yl-1H-pyrrole-2-carbonyl)-amino]-propionylamino}-hex-2(trans)-enoic acid ethyl ester] here?
A: 980 M⁻¹ s⁻¹

Q: And the EC50 (HRV-14)?
A: 27 µM

Q: And the CC50 at 2 days [2]?
A: > 100 µM

Q: For `CCOC(=O)/C=C/[C@H](CCC(N)=O)NC(=O)[C@H](Cc1ccccc1)NC(=O)c1ccc(-c2cncc3ccccc23)[nH]1` [Compound 5, 6-Carbamoyl-4S-{2S-[(5-isoquinolin-4-yl-1H-pyrrole-2-carbonyl)-amino]-3-phenyl-propionylamino}-hex-2(trans)-enoic acid ethyl ester], which kinact/KI [1] is on record?
A: 12700 M⁻¹ s⁻¹

Q: And the EC50 (HRV-14)?
A: 1.1 µM

Q: And the CC50 at 2 days [2]?
A: > 10 µM

Q: For `CCOC(=O)/C=C/[C@H](CCC(N)=O)NC(=O)[C@H](Cc1ccccc1)NC(=O)c1ccc(-c2cccc(C(C)C)c2)[nH]1` [Compound 6, 6-Carbamoyl-4S-(2S-{[5-(3-isopropyl-phenyl)-1H-pyrrole-2-carbonyl]-amino}-3-phenyl-propionylamino)-hex-2(trans)-enoic acid ethyl ester], which kinact/KI [1] is on record?
A: 2130 M⁻¹ s⁻¹

Q: What about the EC50 (HRV-14) of the same compound?
A: 1.43 µM

Q: What about the CC50 at 2 days [2] of the same compound?
A: > 10 µM

Q: With `O=C1OCC/C1=C\[C@H](C[C@@H]1CCNC1=O)NC(=O)[C@H](Cc1ccc(F)cc1)NC(=O)c1ccc(-c2ccccc2)[nH]1` [Compound 27, 5-Phenyl-1H-pyrrole-2-carboxylic acid-{2S-(4-fluorophenyl)-1S-[1-(2-oxo-dihydrofuran-3-ylidinemethyl)-1-(2-oxo-pyrrolidin-3S-methyl)-ethylcarbamoyl]-2S-phenyl-ethyl}-amide] as the compound, how does the kinact/KI [1] read?
A: 11700 M⁻¹ s⁻¹

Q: And the EC50 (HRV-14)?
A: 1.58 µM

Q: What about the CC50 at 2 days [2] of the same compound?
A: > 10 µM

Q: Which kinact/KI [1] does the source give for `O=C1OCC/C1=C\[C@H](C[C@@H]1CCNC1=O)NC(=O)[C@H](Cc1ccc(F)cc1)NC(=O)c1ccc(-c2cccc3ccccc23)[nH]1` [Compound 26] here?
A: 188000 M⁻¹ s⁻¹

Q: What about the EC50 (HRV-14) of the same compound?
A: 0.073 µM

Q: And the CC50 at 2 days [2]?
A: > 10 µM

Q: For `CCC[C@H](NC(=O)c1ccc(-c2ccccc2C(F)(F)F)[nH]1)C(=O)N[C@H](/C=C/C(=O)OCC)CCC(N)=O` [Compound 18, 6-Carbamoyl-4S-(2S-{[5-(2-trifluoromethyl-phenyl)-1H-pyrrole-2-carbonyl]-amino}-pentanoylamino)-hex-2(trans)-enoic acid ethyl ester], which kinact/KI [1] is on record?
A: 3140 M⁻¹ s⁻¹

Q: And the EC50 (HRV-14)?
A: 1.6 µM

Q: And the CC50 at 2 days [2]?
A: > 10 µM

Q: Which results are given for `CCOC(=O)/C=C/[C@H](CCC(N)=O)NC(=O)[C@H](Cc1ccccc1)NC(=O)c1ccc(-c2cccc3ccccc23)[nH]1` [Compound 3]?
A: kinact/KI [1]: 30800 M⁻¹ s⁻¹; EC50 (HRV-14): 0.109 µM; CC50 at 2 days [2]: > 10 µM

Q: Which kinact/KI [1] does the source give for `CCOC(=O)/C=C/[C@H](CCC(N)=O)NC(=O)[C@H](Cc1ccccc1)NC(=O)c1ccc(-c2cccnc2)[nH]1` [Compound 8, 6-Carbamoyl-4S-{3-phenyl-2S-[(5-pyridin-3-yl-1H-pyrrole-2-carbonyl)-amino]-propionylamino}-hex-2(trans)-enoic acid ethyl ester] here?
A: 1300 M⁻¹ s⁻¹

Q: What about the EC50 (HRV-14) of the same compound?
A: 4.92 µM

Q: And the CC50 at 2 days [2]?
A: > 10 µM

Q: What does the source list for `CCOC(=O)/C=C/[C@H](C[C@@H]1CCNC1=O)NC(=O)[C@H](Cc1ccccc1)NC(=O)c1ccc[nH]1` [Compound 24, 5-(2-Oxo-pyrrolidin-3S-yl)-4S-{3-phenyl-2S-[(1H-pyrrole-2-carbonyl)-amino]-propionylamino}-pent-2(trans)-enoic acid ethyl ester]?
A: kinact/KI [1]: 5460 M⁻¹ s⁻¹; EC50 (HRV-14): 3.91 µM; CC50 at 2 days [2]: > 100 µM

Q: With `CCOC(=O)/C=C/[C@H](CCC(N)=O)NC(=O)[C@H](Cc1ccccc1)NC(=O)c1ccc(-c2ccccc2OC)[nH]1` [Compound 11, 6-Carbamoyl-4S-(2S-{[5-(2-methoxy-phenyl)-1H-pyrrole-2-carbonyl]-amino}-3-phenyl-propionylamino)-hex-2(trans)-enoic acid ethyl ester] as the compound, how does the kinact/KI [1] read?
A: 5000 M⁻¹ s⁻¹

Q: What about the EC50 (HRV-14) of the same compound?
A: 0.646 µM

Q: And the CC50 at 2 days [2]?
A: > 10 µM

Q: With `CCOC(=O)/C=C/[C@H](CCC(N)=O)NC(=O)[C@H](Cc1ccccc1)NC(=O)c1ccc(-c2ccccc2Br)[nH]1` [Compound 14, 4S-(2S-{[5-(2-Bromo-phenyl)-1H-pyrrole-2-carbonyl]-amino}-3-phenyl-propionylamino)-6-carbamoyl-hex-2(trans)-enoic acid ethyl ester] as the compound, how does the kinact/KI [1] read?
A: 34600 M⁻¹ s⁻¹

Q: And the EC50 (HRV-14)?
A: 0.534 µM

Q: What about the CC50 at 2 days [2] of the same compound?
A: > 10 µM

Q: With `O=C1OCC/C1=C\[C@H](C[C@@H]1CCNC1=O)NC(=O)[C@@H](CC(=O)c1ccc(-c2cccc3ccccc23)[nH]1)Cc1ccc(F)cc1` [Compound 33, 2-(R,S)-(4-Fluorobenzyl)-4-(5-naphthalen-1-yl-1H-pyrrol-2-yl)-4-oxo-N-[2-(2-oxo-dihydro-furan-3-ylidine)-1S-(2-oxo-pyrrolidin-3S-ylmethyl)-ethyl]-butyramide] as the compound, how does the kinact/KI [1] read?
A: 100000 M⁻¹ s⁻¹

Q: And the EC50 (HRV-14)?
A: 0.212 µM

Q: What about the CC50 at 2 days [2] of the same compound?
A: > 10 µM

Q: Which results are given for `CCOC(=O)/C=C/[C@H](CCC(N)=O)NC(=O)[C@@H](CC(=O)c1ccc(-c2ccccc2C(F)(F)F)[nH]1)Cc1ccccc1` [Compound 40, 4S-{2R-Benzyl-4-oxo-[5-(2-trifluoromethyl-phenyl)-1H-pyrrol-2-yl]-butyrylamino}-6-carbamoyl-hex-2(trans)-enoic acid ethyl ester]?
A: kinact/KI [1]: 3180 M⁻¹ s⁻¹; EC50 (HRV-14): 1.66 µM; CC50 at 2 days [2]: > 10 µM

Q: For `CCOC(=O)/C=C/[C@H](CCC(N)=O)NC(=O)[C@H](Cc1ccccc1)NC(=O)c1ccc(-c2cccc3c2OCO3)[nH]1` [Compound 12], which kinact/KI [1] is on record?
A: 2700 M⁻¹ s⁻¹

Q: What about the EC50 (HRV-14) of the same compound?
A: 1.25 µM

Q: What about the CC50 at 2 days [2] of the same compound?
A: > 10 µM

Q: Which results are given for `CCOC(=O)/C=C/[C@H](C[C@@H]1CCNC1=O)NC(=O)[C@H](CC)CC(=O)c1ccc(-c2ccccc2C(F)(F)F)[nH]1` [Compound 37, 4S-{2R-Ethyl-4-oxo-4-[5-(2-trifluoromethyl-phenyl)-1H-pyrrol-2-yl]-butyrylamino}-5-(2-oxo-pyrrolidin-3S-yl)-pent-2(trans)-enoic acid ethyl ester]?
A: kinact/KI [1]: 26400 M⁻¹ s⁻¹; EC50 (HRV-14): 0.266 µM; CC50 at 2 days [2]: > 10 µM

Q: For `CCOC(=O)/C=C/[C@H](C[C@@H]1CCNC1=O)NC(=O)[C@@H](CC(=O)c1ccc(-c2ccccc2C(F)(F)F)[nH]1)Cc1ccccc1` [Compound 35, 4S-{2R-Benzyl-4-oxo-4-[5-(2-trifluoromethyl-phenyl)-1H-pyrrol-2-yl]-butyrylamino}-5-(2-oxo-pyrrolidin-3S-yl)-pent-2(trans)-enoic acid ethyl ester], which kinact/KI [1] is on record?
A: 125000 M⁻¹ s⁻¹

Q: And the EC50 (HRV-14)?
A: 0.143 µM

Q: And the CC50 at 2 days [2]?
A: > 10 µM

Q: Which results are given for `CCOC(=O)/C=C/[C@H](CCC(N)=O)NC(=O)[C@H](Cc1ccccc1)NC(=O)c1ccc(-c2cccc(Cl)c2Cl)[nH]1` [Compound 1]?
A: kinact/KI [1]: 20300 M⁻¹ s⁻¹; EC50 (HRV-14): 0.202 µM; CC50 at 2 days [2]: > 10 µM

Q: For `CCCC[C@H](NC(=O)c1ccc(-c2ccccc2C(F)(F)F)[nH]1)C(=O)N[C@H](/C=C/C(=O)OCC)CCC(N)=O` [Compound 19, 6-Carbamoyl-4S-(2S-{[5-(2-trifluoromethyl-phenyl)-1H-pyrrole-2-carbonyl]-amino}-hexanoylamino)-hex-2(trans)-enoic acid ethyl ester], which kinact/KI [1] is on record?
A: 6650 M⁻¹ s⁻¹

Q: What about the EC50 (HRV-14) of the same compound?
A: 1.53 µM

Q: What about the CC50 at 2 days [2] of the same compound?
A: > 10 µM

Q: What does the source list for `CCOC(=O)/C=C/[C@H](C[C@@H]1CCNC1=O)NC(=O)[C@@H](CC(=O)c1ccc[nH]1)Cc1ccccc1` [Compound 30]?
A: kinact/KI [1]: 2500 M⁻¹ s⁻¹; EC50 (HRV-14): 3.34 µM; CC50 at 2 days [2]: > 10 µM
